# According to ChEMBL document CHEMBL5030516, “Fighting Shigella by Blocking Its Disease-Causing Toxin” (J Med Chem, 2021):
# Assay: Inhibition of C-terminal 6XHis-tagged Shigella dysenteriae Stx1b (21 to 89 residues) expressed in Escherichia coli BL21 for 1 hr by ELISA assay
row,Structure (SMILES),IC50
1,O=C(O)c1cc(OCc2cn([C@@H]3O[C@H](CO)[C@H](O[C@H]4O[C@H](CO)[C@H](O)[C@H](O)[C@H]4O)[C@H](O)[C@H]3O)nn2)cc(OCc2cn([C@@H]3O[C@H](CO)[C@H](O[C@H]4O[C@H](CO)[C@H](O)[C@H](O)[C@H]4O)[C@H](O)[C@H]3O)nn2)c1,1.07 mM
2,O=C(NCCCCCCCCCCCCNC(=O)c1cc(OCc2cn([C@@H]3O[C@H](CO)[C@H](O[C@H]4O[C@H](CO)[C@H](O)[C@H](O)[C@H]4O)[C@H](O)[C@H]3O)nn2)cc(OCc2cn([C@@H]3O[C@H](CO)[C@H](O[C@H]4O[C@H](CO)[C@H](O)[C@H](O)[C@H]4O)[C@H](O)[C@H]3O)nn2)c1)c1cc(OCc2cn([C@@H]3O[C@H](CO)[C@H](O[C@H]4O[C@H](CO)[C@H](O)[C@H](O)[C@H]4O)[C@H](O)[C@H]3O)nn2)cc(OCc2cn([C@@H]3O[C@H](CO)[C@H](O[C@H]4O[C@H](CO)[C@H](O)[C@H](O)[C@H]4O)[C@H](O)[C@H]3O)nn2)c1,0.0135 mM
3,[N-]=[N+]=N[C@@H]1O[C@H](CO)[C@H](O[C@H]2O[C@H](CO)[C@H](O)[C@H](O)[C@H]2O)[C@H](O)[C@H]1O,4.97 mM
4,O=C(NCCOc1cc(OCCNC(=O)OCc2cn([C@@H]3O[C@H](CO)[C@H](O[C@H]4O[C@H](CO)[C@H](O)[C@H](O)[C@H]4O)[C@H](O)[C@H]3O)nn2)cc(C(=O)O)c1)OCc1cn([C@@H]2O[C@H](CO)[C@H](O[C@H]3O[C@H](CO)[C@H](O)[C@H](O)[C@H]3O)[C@H](O)[C@H]2O)nn1,1.24 mM
5,O=C(O)c1cc(OCCNC(=O)c2cc(OCc3cn([C@@H]4O[C@H](CO)[C@H](O[C@H]5O[C@H](CO)[C@H](O)[C@H](O)[C@H]5O)[C@H](O)[C@H]4O)nn3)cc(OCc3cn([C@@H]4O[C@H](CO)[C@H](O[C@H]5O[C@H](CO)[C@H](O)[C@H](O)[C@H]5O)[C@H](O)[C@H]4O)nn3)c2)cc(OCCNC(=O)c2cc(OCc3cn([C@@H]4O[C@H](CO)[C@H](O[C@H]5O[C@H](CO)[C@H](O)[C@H](O)[C@H]5O)[C@H](O)[C@H]4O)nn3)cc(OCc3cn([C@@H]4O[C@H](CO)[C@H](O[C@H]5O[C@H](CO)[C@H](O)[C@H](O)[C@H]5O)[C@H](O)[C@H]4O)nn3)c2)c1,0.0199 mM
